Measurements published in publication PMC7663597, “Structure–Activity Relationship of Aloperine Derivatives as New Anti–Liver Fibrogenic Agents” (Molecules, 2020).

Tests used:
[1] = system: COL1A1 promotor; assay: COL1A1 promotor luciferase reporter gene assay in TGF-β1-treated LX-2 cells; format: cell-based, human; details: for inhibition at 40 µM / inhibition at 80 µM / IC50: Homo sapiens; for inhibition at 40 µM / inhibition at 80 µM: LX-2, 24 h; for inhibition at 40 µM: 24 h with TGF-β1, read-out: Inhibition Percentage 40 μM (inhibition rate of COL1A1 promotor's activity); for inhibition at 80 µM: 24 h with TGF-β1, read-out: Inhibition Percentage 80 μM (inhibition rate of COL1A1 promotor's activity); for IC50: read-out: IC50 (concentration required to inhibit 50% of COL1A1 promotor's activity)
Description: A single luciferase reporter gene detection model was applied to evaluate the inhibitory effects of all target compounds on the expression of COL1A1 promotor in human hepatic stellate LX-2 cells at the concentrations of 40 and 80 μM, taking EGCG as the positive control. The LX-2 cell lines were transfected with COL1A1 promotor luciferase plasmid pGL4.17-COL1A1P for 24 h, then simultaneously treated with TGF-β1 and a tested compound for 24 h.
(§1) Cells were maintained on Dulbecco’s Modified Eagle’s medium (DMEM), laid on 96-well plate. DMEM medium was supplemented with 10% fetal bovine serum (FBS) at 37 °C humidified atmosphere with 5% CO2. Furthermore, serum-free culture was required until the cells were confluent at 90−95%. 24 h later the cells were treated with a tested compound (40 and 80 μM) for 24 h. The COL1A1 promotor activity was detected by the Bright-Glo luciferase assay system. Alternatively, to test the acute effects of compound on luciferase activity, 24 h later the cells were lysed and the lysate was treated with a tested compound (80 μM) for 2 h, then the luciferase was detected by the Bright-Glo luciferase assay system (Promega, Madison, WI, USA).

[2] = target: T1, luciferase (Photinus pyralis, UniProt P08659, K549A/L550V/N119G/N50D/S548I); assay: Acute effect on luciferase activity (cell lysate, 2 h); format: biochemical; details: 80 μM, 2-h treatment
T1 construct: expressed in transfected cells; host or cells: human hepatic stellate LX-2 cells transfected with pGL4.17-COL1A1P; lysate used
T1 sequence (P08659 whole entry N50D/N119G/S548I/K549A/L550V): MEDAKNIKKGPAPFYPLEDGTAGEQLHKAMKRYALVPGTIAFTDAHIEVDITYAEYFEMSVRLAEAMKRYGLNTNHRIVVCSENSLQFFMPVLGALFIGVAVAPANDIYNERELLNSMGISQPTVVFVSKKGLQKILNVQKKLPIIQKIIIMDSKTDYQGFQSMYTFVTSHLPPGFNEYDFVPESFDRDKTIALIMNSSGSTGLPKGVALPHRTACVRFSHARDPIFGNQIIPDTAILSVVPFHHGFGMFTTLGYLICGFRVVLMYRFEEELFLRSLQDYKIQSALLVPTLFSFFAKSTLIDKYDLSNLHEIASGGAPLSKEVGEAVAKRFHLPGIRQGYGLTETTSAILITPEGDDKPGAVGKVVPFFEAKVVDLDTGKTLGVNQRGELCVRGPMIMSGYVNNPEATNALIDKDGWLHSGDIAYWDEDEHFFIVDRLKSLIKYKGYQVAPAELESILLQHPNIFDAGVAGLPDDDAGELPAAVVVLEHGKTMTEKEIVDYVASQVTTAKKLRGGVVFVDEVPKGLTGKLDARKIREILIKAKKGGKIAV
Description: Then, their anti-COL1A1 potencies were verified by testing the half maximal inhibition concentration (IC50) values upon COL1A1 expression expression in LX-2 cells. […] Then, compounds 4i, 4n and 4p with the lower IC50 values were selected as the key compounds for further studies.
as §1

[3] = LX-2 cell survival, sulforhodamine B (SRB) assay; format: cell-based; details: human, LX-2 cells
Description: LX-2 cell survival was measured by sulforhodamine B (SRB) assay. The cells were seeded in 96-well plates at the density of 2 × 10^4/well and cultured in DMEM/GlutaMAX I medium with 10% fetal bovine serum (FBS) with 5% CO2, 37 °C. The cells were treated by the aloperine derivates for 24 h, washed by PBS for three times. Then the cells were fixed with 10% (wt/vol) trichloroacetic acid for 1 h and stained with SRB for 0.5 h. Subsequently, the protein-bound dye was dissolved in 10 mM Tris base solution after removing excess SRB dye washing repeatedly with 1% (vol/vol) acetic acid, the optical density (OD) was determined at 510 nm with a microplate reader.

[4] = HepG2 cell survival, MTT assay; format: cell-based; details: human, HepG2 cells
Description: HepG2 cell survival was measured by MTT assay. HepG2 cells, at density of 6x10^3 cells/well in 96-well culture plates, were incubated with the aloperine derivates at various concentrations until the cells at 50% confluence for 24 h. 20 µL of the MTT (5 mg/mL) solution was added to each plate and incubated with 5% CO2, 37 °C for 4 h. Subsequently, withdrawing the culture supernatant containing MTT, 150 µL DMSO was used for dissolving the formazan crystal. The absorbance was measured using a microplate reader at 570 nm.

[5] = system: COL1A1 mRNA; assay: RT-PCR of COL1A1 mRNA in LX-2 cells; format: cell-based, human; details: 24 h
Description: (§2) In the absence or presence of TGF-β1 (2 ng/mL) treatment, LX-2 cells were treated with key compounds 4n and 4p at concentrations of 6 μM and 12 μM, or 4i at a concentration of 12 μM, respectively.
LX-2 cells were laid on 6-well plate and cultured in DMEM supplemented with 10% fetal bovine serum (FBS) in a 5% CO2 atmosphere at 37 °C. And serum-free culture was required until the cells reached 90−95% confluence. […] Total RNA of the LX-2 cells was isolated using TRIzol reagent, purified using NucleoSpin RNA Clean-up. Reverse transcription was performed with Transcriptor first strand cDNA synthesis kit. Subsequently, the cDNA levels was determined by ABI 7500 Fast Real-Time PCR System using TaqMan probes of COL1A1, TGF-β1, α-SMA, and GAPDH (sequence not disclosed by ABI) and FastStart Universal Probe master mix (Roche, Indianapolis, IN, USA).

[6] = system: TGFB1 mRNA; assay: RT-PCR of TGFB1 mRNA in LX-2 cells; format: cell-based, human; details: TGF-β1 (2 ng/mL) stimulation, 12 μM, 24 h
Description: as §2
Since the stimulation of TGF-β1 provokes the expression of a series of fibrosis genes, for example COL1A1 and TGFB1 [24, 25], the effects of key compounds on TGF-β1 expression were evaluated by RT-PCR and western blot assays. As shown in Figure 2B and Supplementary Table S1, the expression of TGFB1 mRNA was maintained at a low level, and the addition of a key compound seemed to have little effect on its expression.
LX-2 cells were laid on 6-well plate and cultured in DMEM supplemented with 10% fetal bovine serum (FBS) in a 5% CO2 atmosphere at 37 °C. And serum-free culture was required until the cells reached 90−95% confluence. After 24 h, cells were incubated with […] concentrations of aloperine derivatives in the presence of 2 ng/mL of TGF-β1 for 24 h. Total RNA of the LX-2 cells was isolated using TRIzol reagent, purified using NucleoSpin RNA Clean-up. Reverse transcription was performed with Transcriptor first strand cDNA synthesis kit. Subsequently, the cDNA levels was determined by ABI 7500 Fast Real-Time PCR System using TaqMan probes of COL1A1, TGF-β1, α-SMA, and GAPDH (sequence not disclosed by ABI) and FastStart Universal Probe master mix (Roche, Indianapolis, IN, USA).

[7] = in vivo; details: both sexes, Kunming, mouse, po
Description: To evaluate the safety profiles of the key compounds 4i, 4n and 4p, an acute toxicity test was performed in Kunming mice. Compound 4i was given orally in a single-dosing experiment at 100, 300 and 400 mg kg^−1, while 4n at 300, 400, 500 mg kg^−1, and 4p at 200, 400, 500 mg kg^−1. The mice were closely monitored for 7 days.
Male and Female Kunming mice with weight of 20.0 ±1.0 g were obtained from the Institute of Laboratory Animal Science (Beijing, China). Animals wer e cared according to the institutional guidelines of the Institute of Medicinal Biotechnology, CAMS&PUMC (IMB-20190610D3), and fed with regular rodent chow and housed in an air conditioned room. The mice were randomly divided into different groups with four male mice and four female mice each. Each compound was given orally in a single-dosing experiment, the dose of 4i was 100, 300 and 400 mg kg^−1, the dose of 4n was 300, 400, 500 mg kg^−1, the dose of 4p was 200, 400, 500 mg kg^−1 (ddH2O as control). The mice were closely monitored for 7 days. Body weight as well as survival was monitored.

| SMILES | inhibition at 40 µM ([1]; 40 μM) [%] | inhibition at 80 µM [1] [%] | IC50 [1] [µM] | Acute effect on luciferase activity [2] | CC50 at 24 h [3] [µM] | CC50 at 24 h [4] [µM] | Inhibitory rate of COL1A1 transcription (mRNA) ([5]; TGF-β1 (2 ng/mL) stimulation, 12 μM) [%] | Inhibitory rate of COL1A1 transcription (mRNA) ([5]; absence of TGF-β1, 12 μM) [%] | Inhibitory rate of TGFB1 mRNA expression [6] [%] | LD50 at 7 days [7] [mg/kg] | melting point [°C] | IC50 (concentration required to inhibit 50% of COL1A1 promotor's activity) [1] | Inhibition Percentage 40 μM (inhibition rate of COL1A1 promotor's activity) ([1]; 40 μM, 24 h with TGF-β1) [%] |
| --- | --- | --- | --- | --- | --- | --- | --- | --- | --- | --- | --- | --- | --- |
| O=C(CN1CCCC2=C[C@H]3C[C@H](CN4CCCC[C@H]34)[C@@H]21)Nc1cc(Cl)cc(OC(F)(F)F)c1 [4i, 12N-N′-(3-Chloro-5-trifluoromethoxyphenyl)carbamoylmethyl aloperine] | 99.9 | 99.9 | 8.4 ± 0.3 | minimal inhibition | 19.5 ± 1.8 | 22 ± 4.6 | 97.4 | 45 | 75.4 | 100 |  |  |  |
| O=C(CNS(=O)(=O)c1cc(C(F)(F)F)cc(C(F)(F)F)c1)N1CCCC2=C[C@H]3C[C@H](CN4CCCC[C@H]34)[C@@H]21 [10g, 12N-N′-(3,5-Ditrifluoromethyl)benzenesulfonylaminoacetyl aloperine] | 48.4 ± 24.7 | 84 ± 0.5 | 27.6 ± 3 | minimal inhibition | 68.6 ± 11.7 | 113 ± 3.4 |  |  |  |  | 78 to 80 |  |  |
| O=C(CN1CCCC2=C[C@H]3C[C@H](CN4CCCC[C@H]34)[C@@H]21)Nc1ccc(-c2cc3ccccc3[nH]2)cc1 [4h, 12N-N′-[4-(1H-Indol-2-yl)phenyl]carbamoylmethyl aloperine] | 99.9 | 99.9 |  | minimal inhibition | 7.5 ± 0.4 | 18 ± 1.9 |  |  |  |  | 219 to 221 | failed to give a dose-dependent inhibition | 100.0 ± 0.0 |
